Assay results reported in patent US11191768B2, “Histone acetyltransferase activators and uses thereof” (The Trustees of Columbia University in the City of New York, priority 2014, dated 2021).

Legend:
YAC128 mice = experiment: Accelerating rotarod in the YAC128 Huntington disease model; type: in vivo; conditions: YF2 5 mg/kg i.p. daily from age 2 months
Protocol: HAT activator YF2 (U.S. patent application Ser. No. 13/493,490; herein incorporated by reference in its entirety) was tested in the YAC128 Huntington disease model. Animals were treated with YF2 (5 mg/kg, i.p, daily) or vehicle, starting at the age of 2 months.

[1] = cited from earlier work

Row | SMILES | Rotarod performance of YF2-treated YAC128 mice versus WT mice (YAC128 mice; female mice, 6 months of age, vs WT+YF2 p=0.12734, vs WT+vehicle p=0.1690) | Rotarod performance of YF2-treated YAC128 mice versus WT mice (YAC128 mice; male mice, 4 month old, vs WT+YF2 p=0.1946, vs WT+vehicle p=0.0792) | Solubility [1]
1 | CCOc1cccc(OCCN(C)C)c1C(=O)Nc1ccc(Cl)c(C(F)(F)F)c1 [YF2] | significance was lost | significance was lost | –
2 | CCOc1ccccc1C(=O)Nc1ccc(Cl)c(C(F)(F)F)c1 [CTB] | – | – | insoluble
3 | CCCCCCCCCCCCCCCc1cccc(OCC)c1C(=O)Nc1ccc(Cl)c(C(F)(F)F)c1 [CTPB] | – | – | insoluble
